Assay results published in ChEMBL document CHEMBL1201862, “PubChem BioAssay data set” (2004).
Values belong to the molecule of their own block, whether it stands above or below them. Active and inactive are the calls of the source.

What was measured:
[1] = biological target: T1, Probable nicotinate-nucleotide adenylyltransferase (Staphylococcus aureus (strain N315), UniProt P65502); type: functional, Staphylococcus aureus subsp. aureus N315;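 for IC50 Mean: confirmatory dose-response retesting of NadD inhibitor hits first found in an ultra-high-throughput screen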
[2] = biological target: T1, Probable nicotinate-nucleotide adenylyltransferase; type: functional, Staphylococcus aureus subsp. aureus N315; settings: read-out: IC50_Mean
Protein Wnt-3a = Protein Wnt-3a (Mus musculus, UniProt P27467); test: Wnt3a-driven reporter signaling inhibition, dose response, selectivity assay for Gli-SUFU antagonist project, Wnt-LIGHT cells, luminescence (AID 651570); type: functional; settings: read-out: IC50_Mean;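 note: Wnt-LIGHT reporter cells stimulated with conditioned medium from Wnt3a-producing cells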
Interleukin-8 = biological target: T2, Interleukin-8 (Homo sapiens, UniProt P10145); test: Dose Response confirmation of uHTS small molecule hits for cystic fibrosis induced NFkb Inhibitors in a PAF-induced IL8 counterscreen.; type: functional; settings: read-out: IC50_Mean
T2 sequence (P10145 whole entry): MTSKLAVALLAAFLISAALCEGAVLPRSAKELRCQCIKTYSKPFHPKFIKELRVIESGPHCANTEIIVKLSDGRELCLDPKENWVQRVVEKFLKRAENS

Aminopeptidase N = biological target: T3, Aminopeptidase N (Plasmodium falciparum FcB1/Columbia, UniProt O96935); test: P. falciparum M1AAP inhibitors, biochemical, fluorogenic H-Leu-NHMec substrate, 1536-well (AID 1445); parameters: species or system Plasmodium falciparum 3D7, 3D7
T3 sequence (O96935 whole entry): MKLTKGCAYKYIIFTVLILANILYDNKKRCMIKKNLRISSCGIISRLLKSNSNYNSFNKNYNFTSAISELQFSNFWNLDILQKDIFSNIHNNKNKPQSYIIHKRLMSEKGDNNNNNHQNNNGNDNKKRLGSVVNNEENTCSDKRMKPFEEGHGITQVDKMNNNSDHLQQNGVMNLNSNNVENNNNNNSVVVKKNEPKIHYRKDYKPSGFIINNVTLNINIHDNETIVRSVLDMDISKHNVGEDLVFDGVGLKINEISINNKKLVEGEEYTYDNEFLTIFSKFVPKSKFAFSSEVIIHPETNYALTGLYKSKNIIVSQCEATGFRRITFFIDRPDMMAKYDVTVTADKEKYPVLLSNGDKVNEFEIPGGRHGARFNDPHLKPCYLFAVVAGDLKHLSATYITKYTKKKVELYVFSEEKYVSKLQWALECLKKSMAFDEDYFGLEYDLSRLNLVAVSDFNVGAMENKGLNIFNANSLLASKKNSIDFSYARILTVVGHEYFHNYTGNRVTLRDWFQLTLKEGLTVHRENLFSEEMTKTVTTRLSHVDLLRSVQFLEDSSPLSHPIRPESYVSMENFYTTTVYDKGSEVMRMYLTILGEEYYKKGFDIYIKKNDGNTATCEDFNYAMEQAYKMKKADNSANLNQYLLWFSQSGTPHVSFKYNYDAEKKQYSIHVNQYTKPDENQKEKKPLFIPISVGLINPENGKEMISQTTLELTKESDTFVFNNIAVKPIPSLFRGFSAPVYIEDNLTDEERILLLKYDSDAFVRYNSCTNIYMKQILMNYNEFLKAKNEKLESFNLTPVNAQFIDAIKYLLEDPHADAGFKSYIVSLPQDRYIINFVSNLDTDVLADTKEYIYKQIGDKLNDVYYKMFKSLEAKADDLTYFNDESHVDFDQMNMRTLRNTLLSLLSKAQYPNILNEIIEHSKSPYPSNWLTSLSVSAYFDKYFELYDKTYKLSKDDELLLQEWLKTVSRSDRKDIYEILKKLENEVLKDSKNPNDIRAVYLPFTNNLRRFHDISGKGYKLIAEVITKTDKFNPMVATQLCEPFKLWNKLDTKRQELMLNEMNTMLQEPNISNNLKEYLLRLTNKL

Estrogen receptor beta [3] = biological target: T4, Estrogen receptor beta (Homo sapiens, UniProt Q92731);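 note: recombinant ER-beta bound to coactivator SRC1 peptide in presence of estradiol agonist; inhibitors block coactivator peptide binding and lower the FRET signal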
Estrogen receptor beta [4] = biological target: T4, Estrogen receptor beta; test: ERβ–SRC-3 coactivator interaction inhibitors, confirmation, orthogonal assay, biochemical, ELISA, streptavidin-HRP readout (AID 1060)
[5] = system: Streptococcus sp. 'group A'; test: growth inhibition of control SK(-) GAS strain, dose response, counter-screen for streptokinase expression inhibitor project, luminescence, kanamycin, BacTiterGlo, confirmation (AID 1900); type: functional, organism-based
[6] = biological target: Induced myeloid leukemia cell differentiation protein Mcl-1 (Homo sapiens, UniProt Q07820); type: functional
Streptococcus = test: Group A Streptococcus viability loss, dose response, counter-screen for streptokinase expression inhibitor project, luminescence, BacTiterGlo (AID 1915); type: functional, organism-based;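 note: potency for reduction of bacterial viability or growth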
[7] = Luminescence Cell-Based Dose Retest to Confirm Inhibitors of Cancer Stem Cells. [Related pubchem assays (depositor defined):AID2717, AID2721]; type: functional; settings: Homo sapiens
[8] = biological target: DNA (cytosine-5)-methyltransferase 1 (Homo sapiens, UniProt P26358); test: DNMT1 methyltransferase inhibitors, confirmation, biochemical, fluorescent molecular beacon (AID 602386); type: functional
[9] = biological target: T5, Sentrin-specific protease 8 (Homo sapiens, UniProt Q96LD8); test: SENP8 protease inhibitors, SAR follow-up, biochemical, luminescence (AID 504501); type: functional
T5 sequence (Q96LD8 whole entry): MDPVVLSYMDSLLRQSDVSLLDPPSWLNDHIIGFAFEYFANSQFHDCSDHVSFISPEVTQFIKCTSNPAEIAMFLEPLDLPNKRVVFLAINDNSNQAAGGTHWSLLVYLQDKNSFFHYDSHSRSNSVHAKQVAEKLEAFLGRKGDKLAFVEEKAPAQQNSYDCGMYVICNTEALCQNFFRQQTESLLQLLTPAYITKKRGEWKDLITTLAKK

Caspase-3 = biological target: T6, Caspase-3 (Homo sapiens, UniProt P42574); test: SAR Analysis of small molecule inhibitors of Sentrin-specific proteases (SENPs) using a Caspase-3 Selectivity assay. [Related pubchem assays (depositor defined):AID2540, AID2599, AID434973, AID489001]; type: functional
T6 sequence (P42574 whole entry): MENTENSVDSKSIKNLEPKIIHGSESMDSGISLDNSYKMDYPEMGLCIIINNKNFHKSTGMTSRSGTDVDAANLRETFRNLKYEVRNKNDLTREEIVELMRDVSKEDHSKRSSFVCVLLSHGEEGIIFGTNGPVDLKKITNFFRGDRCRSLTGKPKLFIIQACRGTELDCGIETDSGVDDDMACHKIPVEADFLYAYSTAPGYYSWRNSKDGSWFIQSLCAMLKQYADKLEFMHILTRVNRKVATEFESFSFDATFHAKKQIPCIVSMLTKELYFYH

[10] = biological target: T7, Sentrin-specific protease 6 (Homo sapiens, UniProt Q9GZR1); test: SAR Analysis of small molecule inhibitors of Sentrin-specific protease 6 (SENP6) using a Luminescent assay. [Related pubchem assays (depositor defined):AID2582, AID2599]; type: functional
T7 sequence (Q9GZR1 whole entry): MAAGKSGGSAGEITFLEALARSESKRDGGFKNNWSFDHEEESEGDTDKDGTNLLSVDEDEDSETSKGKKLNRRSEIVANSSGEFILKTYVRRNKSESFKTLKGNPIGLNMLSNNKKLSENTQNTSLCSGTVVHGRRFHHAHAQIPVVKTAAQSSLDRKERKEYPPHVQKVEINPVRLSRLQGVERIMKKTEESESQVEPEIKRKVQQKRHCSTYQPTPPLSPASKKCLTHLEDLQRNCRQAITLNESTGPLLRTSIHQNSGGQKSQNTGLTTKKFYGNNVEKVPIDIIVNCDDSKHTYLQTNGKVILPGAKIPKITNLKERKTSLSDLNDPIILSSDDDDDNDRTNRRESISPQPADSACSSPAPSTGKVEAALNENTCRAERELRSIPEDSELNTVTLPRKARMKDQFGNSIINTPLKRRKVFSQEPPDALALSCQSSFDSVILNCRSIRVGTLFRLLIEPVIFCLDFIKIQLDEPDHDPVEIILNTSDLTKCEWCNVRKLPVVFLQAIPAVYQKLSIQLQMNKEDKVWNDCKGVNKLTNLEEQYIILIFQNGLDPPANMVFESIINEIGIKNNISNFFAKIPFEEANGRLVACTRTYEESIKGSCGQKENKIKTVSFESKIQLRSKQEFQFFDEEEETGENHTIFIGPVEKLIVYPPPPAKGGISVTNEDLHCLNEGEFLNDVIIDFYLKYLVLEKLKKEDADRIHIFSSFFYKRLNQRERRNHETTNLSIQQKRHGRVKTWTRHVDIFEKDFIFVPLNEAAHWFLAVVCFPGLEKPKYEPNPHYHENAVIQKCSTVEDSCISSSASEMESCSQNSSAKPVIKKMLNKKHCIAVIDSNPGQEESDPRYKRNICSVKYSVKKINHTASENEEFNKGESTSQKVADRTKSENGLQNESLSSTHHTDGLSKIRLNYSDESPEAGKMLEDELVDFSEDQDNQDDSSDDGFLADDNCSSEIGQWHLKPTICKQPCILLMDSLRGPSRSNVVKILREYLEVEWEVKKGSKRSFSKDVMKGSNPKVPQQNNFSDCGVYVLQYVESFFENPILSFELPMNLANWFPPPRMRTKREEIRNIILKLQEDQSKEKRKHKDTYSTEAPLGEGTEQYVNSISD

[11] = biological target: T8, Sentrin-specific protease 7 (Homo sapiens, UniProt Q9BQF6); test: SENP7 protease inhibitors, SAR follow-up, biochemical, luminescence (AID 504497); type: functional
T8 sequence (Q9BQF6 whole entry): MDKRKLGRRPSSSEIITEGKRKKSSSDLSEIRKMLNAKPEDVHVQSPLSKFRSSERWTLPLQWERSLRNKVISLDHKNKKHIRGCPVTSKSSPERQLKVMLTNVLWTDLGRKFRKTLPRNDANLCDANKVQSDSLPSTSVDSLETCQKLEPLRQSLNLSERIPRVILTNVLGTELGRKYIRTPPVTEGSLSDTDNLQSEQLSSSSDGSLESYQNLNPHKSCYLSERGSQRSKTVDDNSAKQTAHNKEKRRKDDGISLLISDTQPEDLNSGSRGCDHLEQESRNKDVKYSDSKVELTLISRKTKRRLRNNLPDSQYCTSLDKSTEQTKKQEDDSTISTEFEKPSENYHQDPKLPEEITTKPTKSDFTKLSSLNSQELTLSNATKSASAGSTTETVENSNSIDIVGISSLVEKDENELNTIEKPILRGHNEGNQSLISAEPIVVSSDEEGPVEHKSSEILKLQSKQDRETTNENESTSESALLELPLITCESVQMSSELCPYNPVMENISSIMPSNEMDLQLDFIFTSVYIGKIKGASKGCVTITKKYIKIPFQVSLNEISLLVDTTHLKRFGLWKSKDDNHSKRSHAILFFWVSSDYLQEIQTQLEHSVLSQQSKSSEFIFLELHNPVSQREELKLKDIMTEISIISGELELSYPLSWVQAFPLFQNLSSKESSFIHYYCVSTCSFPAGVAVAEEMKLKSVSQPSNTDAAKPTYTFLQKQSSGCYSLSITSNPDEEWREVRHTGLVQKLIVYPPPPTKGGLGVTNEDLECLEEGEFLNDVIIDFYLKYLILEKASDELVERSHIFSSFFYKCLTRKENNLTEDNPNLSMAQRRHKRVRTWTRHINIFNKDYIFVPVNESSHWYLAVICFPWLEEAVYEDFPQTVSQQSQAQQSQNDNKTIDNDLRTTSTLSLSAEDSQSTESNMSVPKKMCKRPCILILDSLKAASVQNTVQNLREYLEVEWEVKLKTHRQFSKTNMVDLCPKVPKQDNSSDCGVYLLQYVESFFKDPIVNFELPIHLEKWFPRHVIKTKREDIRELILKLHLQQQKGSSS
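Throughout, for AC50: cells exposed to compound for roughly 70 hours or longer before luminescence read.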

T4 sequence (Q92731 whole entry): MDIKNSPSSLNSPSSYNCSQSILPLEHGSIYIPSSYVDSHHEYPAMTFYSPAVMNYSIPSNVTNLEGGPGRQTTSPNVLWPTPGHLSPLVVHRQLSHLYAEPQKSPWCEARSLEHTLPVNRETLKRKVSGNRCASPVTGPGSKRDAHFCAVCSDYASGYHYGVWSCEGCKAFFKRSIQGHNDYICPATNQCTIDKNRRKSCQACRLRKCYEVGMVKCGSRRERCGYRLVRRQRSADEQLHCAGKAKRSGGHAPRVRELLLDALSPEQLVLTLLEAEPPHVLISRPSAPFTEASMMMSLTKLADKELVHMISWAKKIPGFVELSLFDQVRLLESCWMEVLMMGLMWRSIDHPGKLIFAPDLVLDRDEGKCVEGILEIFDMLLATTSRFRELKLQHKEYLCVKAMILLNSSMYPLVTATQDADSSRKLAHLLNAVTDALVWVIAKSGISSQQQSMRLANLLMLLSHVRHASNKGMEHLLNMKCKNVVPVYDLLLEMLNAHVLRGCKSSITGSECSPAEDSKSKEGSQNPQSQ
DNA (cytosine-5)-methyltransferase 1, sequence (P26358 whole entry): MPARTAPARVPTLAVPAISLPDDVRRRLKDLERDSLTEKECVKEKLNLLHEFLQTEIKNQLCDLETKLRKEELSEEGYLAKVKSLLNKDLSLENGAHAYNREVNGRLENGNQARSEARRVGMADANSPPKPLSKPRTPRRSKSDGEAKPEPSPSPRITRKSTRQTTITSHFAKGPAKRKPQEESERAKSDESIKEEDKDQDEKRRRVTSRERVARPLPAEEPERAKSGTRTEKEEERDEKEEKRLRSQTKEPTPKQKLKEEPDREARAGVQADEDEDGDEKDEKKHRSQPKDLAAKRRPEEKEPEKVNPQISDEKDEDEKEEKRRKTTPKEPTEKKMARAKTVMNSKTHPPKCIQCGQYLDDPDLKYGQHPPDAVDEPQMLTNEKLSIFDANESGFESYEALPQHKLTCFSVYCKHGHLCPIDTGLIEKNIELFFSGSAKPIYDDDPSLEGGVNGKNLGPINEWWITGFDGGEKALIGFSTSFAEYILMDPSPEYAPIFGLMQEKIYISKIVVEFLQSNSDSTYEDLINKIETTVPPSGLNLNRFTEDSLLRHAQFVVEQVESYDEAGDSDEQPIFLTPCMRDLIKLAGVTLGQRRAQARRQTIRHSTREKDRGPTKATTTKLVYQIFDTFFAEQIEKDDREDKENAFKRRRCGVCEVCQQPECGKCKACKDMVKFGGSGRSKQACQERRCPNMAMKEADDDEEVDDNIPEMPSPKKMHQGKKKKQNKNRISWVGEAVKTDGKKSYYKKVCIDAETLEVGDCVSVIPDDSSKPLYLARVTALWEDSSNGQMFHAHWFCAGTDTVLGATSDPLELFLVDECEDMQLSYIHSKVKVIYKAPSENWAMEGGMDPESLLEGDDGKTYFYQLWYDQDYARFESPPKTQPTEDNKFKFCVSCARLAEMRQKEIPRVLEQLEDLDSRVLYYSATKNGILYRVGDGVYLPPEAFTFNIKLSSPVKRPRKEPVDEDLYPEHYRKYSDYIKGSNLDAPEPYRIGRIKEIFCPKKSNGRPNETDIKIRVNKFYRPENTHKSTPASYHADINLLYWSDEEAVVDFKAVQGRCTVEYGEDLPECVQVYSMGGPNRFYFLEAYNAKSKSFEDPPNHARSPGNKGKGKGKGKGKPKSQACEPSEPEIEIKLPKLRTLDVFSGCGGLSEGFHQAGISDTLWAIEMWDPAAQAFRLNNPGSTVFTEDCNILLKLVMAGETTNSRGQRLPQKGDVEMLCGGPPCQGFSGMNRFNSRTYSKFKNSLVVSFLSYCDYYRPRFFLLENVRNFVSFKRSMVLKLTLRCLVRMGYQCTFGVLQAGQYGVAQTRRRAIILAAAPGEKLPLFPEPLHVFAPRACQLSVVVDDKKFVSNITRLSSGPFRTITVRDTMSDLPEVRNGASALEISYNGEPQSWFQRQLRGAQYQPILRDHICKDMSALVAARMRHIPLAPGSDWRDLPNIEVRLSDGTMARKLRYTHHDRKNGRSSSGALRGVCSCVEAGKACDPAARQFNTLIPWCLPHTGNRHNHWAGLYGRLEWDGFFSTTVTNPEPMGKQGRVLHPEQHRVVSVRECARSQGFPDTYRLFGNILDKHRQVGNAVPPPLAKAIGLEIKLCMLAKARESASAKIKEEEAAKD
Protein Wnt-3a, sequence (P27467 whole entry): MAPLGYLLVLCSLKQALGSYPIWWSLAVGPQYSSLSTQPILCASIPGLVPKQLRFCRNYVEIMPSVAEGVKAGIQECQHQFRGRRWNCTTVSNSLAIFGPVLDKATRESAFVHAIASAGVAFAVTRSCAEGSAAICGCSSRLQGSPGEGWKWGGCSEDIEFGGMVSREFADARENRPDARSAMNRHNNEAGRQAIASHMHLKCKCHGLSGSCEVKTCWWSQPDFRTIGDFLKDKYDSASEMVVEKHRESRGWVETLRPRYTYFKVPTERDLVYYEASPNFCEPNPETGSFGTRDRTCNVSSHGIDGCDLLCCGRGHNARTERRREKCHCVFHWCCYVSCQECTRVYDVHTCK
Induced myeloid leukemia cell differentiation protein Mcl-1, sequence (Q07820 whole entry): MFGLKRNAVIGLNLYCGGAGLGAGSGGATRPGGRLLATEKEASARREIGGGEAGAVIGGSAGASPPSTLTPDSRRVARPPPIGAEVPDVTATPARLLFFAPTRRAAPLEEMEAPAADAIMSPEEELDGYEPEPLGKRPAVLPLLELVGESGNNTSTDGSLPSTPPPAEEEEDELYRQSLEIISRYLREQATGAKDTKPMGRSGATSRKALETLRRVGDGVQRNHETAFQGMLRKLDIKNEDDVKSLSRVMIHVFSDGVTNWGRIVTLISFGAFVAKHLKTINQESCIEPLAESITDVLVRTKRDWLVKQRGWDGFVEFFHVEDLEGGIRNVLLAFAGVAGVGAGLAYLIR

- IC50 (Protein Wnt-3a): 47.7 µM (inactive)
SMILES: O=C(Nc1ccccc1)C1=C[C@@H](C2CCCCC2)C[C@@H](OCCCCO)O1

- IC50 (Interleukin-8): > 79 µM (inactive)
SMILES: CC1=C(C(=O)OCc2ccc3c(c2)OCO3)C(c2cccc([N+](=O)[O-])c2)NC(=O)N1 (stereo unspecified)

- IC50 (Caspase-3): 12 µM (active)
- IC50 [10]: 2.95 µM (active)
- IC50 [11]: 2.65 µM (active)
SMILES: O=C(Nc1nc2ccc(NS(=O)(=O)c3ccc(Cl)s3)cc2s1)c1ccccc1
- IC50 [9]: 3.34 µM (active)

- IC50 (Caspase-3): > 99 µM (inactive)
- IC50 [10]: > 99 µM (inactive)
- IC50 [11]: 46.5 µM (active)
SMILES: CCOc1ccc2nc(NC(=O)c3ccc(NS(=O)(=O)c4cccs4)cc3)sc2c1
- IC50 [9]: > 99 µM (inactive)

- IC50 (Caspase-3): > 99 µM (inactive)
- IC50 [10]: > 99 µM (inactive)
- IC50 [11]: > 99 µM (inactive)
SMILES: CCCCOCCCNC(=O)CNC(=O)c1sc2ccccc2c1Cl
- IC50 [9]: > 99 µM (inactive)

Continued, molecule first:

SMILES: Oc1ccc(Nc2nc(-c3cccs3)cs2)cc1
- IC50 [1]: 14.3 µM (active)
- IC50 [2]: 28.3 µM (active)

SMILES: Cc1oc2c(cc(NS(=O)(=O)c3ccc4c5c(cccc35)C(=O)N4)c3ccccc32)c1C(=O)OC(C)C
- IC50 (Aminopeptidase N): 36.7 µM (active)
- IC50 (Estrogen receptor beta [3]): 34.8 µM (not active)
- IC50 (Estrogen receptor beta [4]): 0.706 µM (not active)
- IC50 [1]: 28.6 µM (active)
- IC50 [2]: 63.2 µM (active)

SMILES: COc1ccc(/C=C2/C(=O)N(c3nc4ccccc4s3)N=C2CSc2ccc(Cl)cc2)cc1
- EC50 [5]: 0.647 µM (active)
- IC50 [6]: 1.69 µM (active)
- EC50 (Streptococcus): 3.65 µM (active)
- AC50 [7]: 3.01 µM (active)
- IC50 [8]: 2.86 µM (active)
